{"source": "patent US20090018197A1", "about": "“METHODS FOR TREATING STATUS E[…] RELATED CONDITIONS” (priority 2003, published 2009)", "assay_type_in_all_cases": "in vivo, rat", "key": {"[1]": {"system": "self-sustaining status epilepticus (SSSE)", "test": "Experiment 1a: SSSE after electrical stimulation of the perforant path (60 min stimulation)", "settings": "male Wistar rats, i.v. 10 min after end of 60 min perforant path stimulation; SPM 927 50 mg/kg, PHT 50 mg/kg, DZP 10 mg/kg; vs control", "protocol": "(§1) Animals: The experiments were performed on male Wistar rats, 280-300 g (Simonsen Labs, Calif.). Animals were kept at a constant room temperature with 12 hours artificial dark-light cycle with free access to standard diet and tap water.\n(§2) Surgery: Under ketamine (60 mg/kg)/xylazine (15 mg/kg) anesthesia, animals were implanted with a bipolar stimulating electrode into the angular bundle of the perforant path (4.5 mm to left lambda, 1 mm anterior to lambdoid fissure) and a bipolar recording electrode into the granule cell layer of the ipsilateral dentate gyrus (3.5 mm anterior to lambda, 2.2 mm left to sagittal fissure). Depth of both electrodes was optimized by monitoring the amplitude and waveform of the population spike evoked from the dentate gyrus by stimuli delivered through the perforant path (single square wave monophasic stimuli, 20 V, 0.1 ms delivered every 10 s).\n(§3) Induction of self-sustaining status epilepticus (SSSE): Seven days after surgery, animals were connected to a Cardionics 16 channel preamplifier, which was connected to the IBM computer. After 5 minutes of baseline EEG recording, animals were stimulated in the awake state for 60 minutes (Experiment 1a) or 30 minutes (Experiments 1b and 1c) with 10 s 20 Hz trains (1 ms square wave, 20 V) delivered every minute, together with 2 Hz continuous stimulation with the same parameters.\n(§4) EEG monitoring and analysis: EEG from the dentate gyrus was monitored and recorded by means of commercial software (Monitor 8.1 from Stellate Systems). The software was configured for automatic detection and saving of spikes and seizures. Monitoring was performed for 24 hrs. EEG was analyzed off line by means of the same software. Spike distribution was presented as number of spikes per 10 min epoch, and the cumulated duration of seizures for 24 hrs of monitoring were calculated. Statistical analysis was performed by means of T-test. A p value less than 0.05 was considered statistically significant.\n(§5) Drug administration: SPM 927 (50 mg/kg, 5 animals), phenyloin (PHT) (50 mg/kg), fosphenyloin (F-PTH, Parke-Davis, 50 mg/kg of phenyloin equivalent, 5 animals), diazepam (DZP) (10 mg/kg) or vehicle (VEH, 10% DMSO, 6 animals) were given i.v. 10 min after the end of perforant path stimulation in a volume of 1 ml/kg."}, "[2]": {"system": "self-sustaining status epilepticus (SSSE)", "test": "Experiment 1b: SSSE after electrical stimulation of the perforant path (30 min stimulation), SPM 927 vs fosphenyloin", "settings": "male Wistar rats, 50 mg/kg i.v. 10 min after end of 30 min stimulation; for spike frequency (number of spikes/10 min): vs control", "protocol": "as §1, §2, §3, §4, §5"}, "[3]": {"system": "generalized tonic-clonic seizures (GTCS) in chemically induced SSSE", "test": "Experiment 2: chemically induced SSSE (cobalt/homocysteine thiolactone)", "settings": "for mean # GTCS: Sprague-Dawley rats", "protocol": "Male Sprague-Dawley rats were prepared surgically with cobalt powder on the left frontal cortical surface.\nRecording and stimulation protocol: Four epidural recording electrodes were arranged in a square grid (5 mm) over the cobalt lesion. EEG was monitored daily beginning 4-5 days following surgery. Status epilepticus was induced by i.p. injection of 5.5 mmol/kg homocysteine thiolactone whenever focal motor behaviour and EEG seizures were observed.\nDrug administration: SPM 927 was administered (10-100 mg/kg) immediately following the second generalized tonic-clonic seizure (GTCS) occurring after homocysteine thiolactone injection."}, "[4]": {"system": "hippocampal damage following SSSE", "test": "Experiment 1c: hippocampal damage following SSSE (damaged neuron score)", "settings": "for hippocampal damage score, CA1 / hippocampal damage score, CA3 / hippocampal damage score, Hilus / hippocampal damage score, Subiculum: scale 0-5, brains collected 72 hours after SSSE", "protocol": "as §1, §2, §3, §5\nCollection of tissue: Brains were collected 72 hours after SSSE. This was accomplished by transcardial perfusion with first heparinized normal saline for about 2 minutes to largely clear the vasculature of blood and second by phosphate buffered formaldehyde (10% formaldehyde at pH 7.4) for 10 to 15 min (approximately 50 to 60 ml). Carcasses were placed in the refrigerator overnight to further firm the tissue and the brains were dissected from the heads the following day.\nPreparation of brain sections for light microscopy: after Removal, the Brains were passed through a graded series of alcohol and clearing agent (Hemo-De, Fisher) and then embedded in paraffin. Serial 8 micron-thick coronal sections were cut from the embedded tissue at approximately 100 micron intervals and float mounted onto microscope slides. The sections were stained with hematoxylin and eosin and coverslipped.\nSelection of sections for counting: Selection of sections for counting was controlled by the stereotaxic atlas for rats (Paxinos and Watson). The 3 sections selected for quantitation contained dorsal hippocampus and were 1.6±0.05 mm posterior to bregma.\nLocation of counting fields—damage to the pyramidal cell layer was assessed by counting damaged neurons in the subiculum, CA1, CA3, CA3c and the hilus in the dorsal hippocampus. The neurons were assessed individually from the beginning of the subiculum to the end of the CA3c region using an Olympus Provis Ax 70 microscope at a magnification of 40×. The CA3-CA3c transition was defined by a line connecting the extremeties of the blades of the dentate gyrus. The hilus was defined as the space located between the blades of the dentate gyrus, excluding the line of CA3c pyramids.\nCriteria for differentiation of damaged versus non-damaged neurons—neurons were counted only if the majority of the nucleus was present in the section. Damaged neurons were counted if they were distinctly eosinophilic or distinctly pyknotic or both. All other cells with most of the nucleus present in the section (and counting field) were counted as not damaged. Each brain was assessed on left side and right side individually and also combined. The counting fields were individually divided into subiculum, CA1, CA3, CA3c and hilus. […]"}, "[5]": {"settings": "10 mg/kg, 30 min following treatment"}, "[6]": {"settings": "20 mg/kg, 30 min following treatment"}, "[7]": {"settings": "40 mg/kg, 30 min following treatment"}, "[8]": {"settings": "80 mg/kg, 30 min following treatment"}}}
{"smiles": "O=C1NC(=O)C(c2ccccc2)(c2ccccc2)N1", "note": "[PHT, phenyloin]", "values": [{"measurement": "cumulative seizure duration over the 24 h period", "setting": "[1]", "result": "potently and significantly reduced"}, {"measurement": "time to the last seizure", "setting": "[1]", "result": "potently and significantly reduced"}]}
{"smiles": "CN1C(=O)CN=C(c2ccccc2)c2cc(Cl)ccc21", "note": "[DZP, diazepam]", "values": [{"measurement": "cumulative seizure duration over the 24 h period", "setting": "[1]", "result": "potently and significantly reduced"}, {"measurement": "time to the last seizure", "setting": "[1]", "result": "potently and significantly reduced"}]}
{"smiles": "O=C1NC(c2ccccc2)(c2ccccc2)C(=O)N1COP(=O)(O)O", "note": "[Fosphenyloin, fosphenyloin, reference compound]", "values": [{"measurement": "time until seizures stopped after injection", "setting": "[2]", "result": "≤ 15", "unit": "min"}, {"measurement": "spike frequency (number of spikes/10 min)", "setting": "[2]", "result": "significantly lower than in control animals but significantly higher than in SPM 927 treated rats"}]}
{"smiles": "COC[C@@H](NC(C)=O)C(=O)NCc1ccccc1", "note": "[SPM 927, (R)-2-acetamido-N-benzyl-3-methoxypropionamide]", "values": [{"measurement": "seizure recurrence over the next 24 hrs", "setting": "[2]", "result": "did not recur"}, {"measurement": "time during which a few single spikes were recorded", "setting": "[2]", "result": "about 12 hrs"}, {"measurement": "time until seizures stopped after injection", "setting": "[2]", "result": "≤ 15", "unit": "min"}, {"measurement": "spike frequency (number of spikes/10 min)", "setting": "[2]", "result": "significantly decreased"}, {"measurement": "interval to 1st GTCS", "setting": "[3]; 10 mg/kg", "result": 6.6, "unit": "min"}, {"measurement": "# rats with GTCS", "setting": "[3]; [5]", "result": "8/8"}, {"measurement": "mean # GTCS", "setting": "[3]; [5]", "result": 4.8}, {"measurement": "interval to 1st GTCS", "setting": "[3]; 20 mg/kg", "result": 8.9, "unit": "min"}, {"measurement": "# rats with GTCS", "setting": "[3]; [6]", "result": "7/8"}, {"measurement": "mean # GTCS", "setting": "[3]; [6]", "result": 2.7}, {"measurement": "interval to 1st GTCS", "setting": "[3]; 40 mg/kg", "result": 5.6, "unit": "min"}, {"measurement": "# rats with GTCS", "setting": "[3]; [7]", "result": "4/8"}, {"measurement": "mean # GTCS", "setting": "[3]; [7]", "result": 3.8}, {"measurement": "interval to 1st GTCS", "setting": "[3]; 80 mg/kg", "result": 14.0, "unit": "min"}, {"measurement": "# rats with GTCS", "setting": "[3]; [8]", "result": "3/8"}, {"measurement": "mean # GTCS", "setting": "[3]; [8]", "result": 2.7}, {"measurement": "# rats with GTCS", "setting": "[3]; 100 mg/kg, 30 min following treatment", "result": "0/8"}, {"measurement": "number of rats experiencing GTCS", "setting": "[3]; 10-100 mg/kg, 30 min following treatment", "result": "reduced in a dose-dependent fashion"}, {"measurement": "hippocampal damage score, CA1", "setting": "[4]; Contralateral", "result": "1.2 ± 0.4"}, {"measurement": "hippocampal damage score, CA3", "setting": "[4]; Contralateral", "result": "1.0 ± 0.0"}, {"measurement": "hippocampal damage score, Hilus", "setting": "[4]; Contralateral", "result": "1.4 ± 0.5"}, {"measurement": "hippocampal damage score, Subiculum", "setting": "[4]; Contralateral", "result": "1.0 ± 0.0"}, {"measurement": "hippocampal damage score, CA1", "setting": "[4]; Ipsilateral", "result": "1.0 ± 0.0"}, {"measurement": "hippocampal damage score, CA3", "setting": "[4]; Ipsilateral", "result": "1.0 ± 0.0"}, {"measurement": "hippocampal damage score, Hilus", "setting": "[4]; Ipsilateral", "result": "1.2 ± 0.4"}, {"measurement": "hippocampal damage score, Subiculum", "setting": "[4]; Ipsilateral", "result": "1.0 ± 0.0"}, {"measurement": "injured neurons in any hippocampal field", "setting": "[4]; treated rats following SSSE", "result": "only an occasional injured neuron"}, {"measurement": "cumulative seizure duration over the 24 h period", "setting": "[1]", "result": "potently and significantly reduced"}, {"measurement": "time to the last seizure", "setting": "[1]", "result": "potently and significantly reduced"}]}
